Test results published in ChEMBL document CHEMBL1201862, “PubChem BioAssay data set” (2004).
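Results reflect a 48-hour exposure of cells in 96-well plates to compound at five concentrations. GI50 = concentration required for 50% inhibition of growth.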 Active and inactive are the calls of the source. Cut-off read from the data, not from the text of the source: active = GI50 up to about 1.1 µM and inactive = higher.

Legend:
Assay in all cases: NCI anticancer screen, dose series, 48 h
[1] = test system: SF-268
[2] = test system: OVCAR-5
[3] = test system: DU-145
[4] = test system: PC-3
[5] = test system: A498
[6] = test system: 786-0
[7] = test system: CCRF-CEM
[8] = test system: SK-OV-3
[9] = test system: HOP-92
[10] = test system: HCT-116
[11] = test system: HOP-62
[12] = test system: MDA-MB-435
[13] = test system: OVCAR-3
[14] = test system: A549
[15] = test system: SK-MEL-5
[16] = test system: NCI/ADR-RES
[17] = test system: SK-MEL-28
[18] = test system: Malme-3M
[19] = test system: M14
[20] = test system: TK-10
[21] = test system: HL-60
[22] = test system: ACHN
[23] = test system: NCI-H23
[24] = test system: KM12
[25] = test system: NCI-H226
[26] = test system: MCF7
[27] = test system: SN12C
[28] = test system: SK-MEL-2
[29] = test system: UO-31
[30] = test system: MDA-N
[31] = test system: RPMI-8226
[32] = test system: SW-620
[33] = test system: SNB-19
[34] = test system: HT-29
[35] = test system: SR
[36] = test system: HCT-15
[37] = test system: OVCAR-4
[38] = test system: LOX IMVI
[39] = test system: IGROV-1
[40] = test system: Hs-578T
[41] = test system: HCC 2998
[42] = test system: NCI-H522
[43] = test system: MDA-MB-231
[44] = test system: SNB-75
[45] = test system: MOLT-4
[46] = test system: UACC-62
[47] = test system: K562
[48] = test system: SF-295
[49] = test system: OVCAR-8
[50] = test system: U-251
[51] = test system: COLO 205
[52] = test system: SF-539
[53] = test system: UACC-257
[54] = test system: EKVX
[55] = test system: CAKI-1
[56] = test system: RXF 393
[57] = test system: T47D
[58] = test system: NCI-H460

Measured: GI50

Cc1cn(C2OC(CO[Si](C)(C)C(C)(C)C)C(N(C)O[Si](C)(C)C(C)(C)C)C2[Se]c2ccccc2)c(=O)[nH]c1=O (stereo unspecified)
4.59 µM: [36]
active: [41] 0.0325 µM
inactive: [1] 2.75 µM | [2] 2.82 µM | [3] 8.93 µM | [4] 3.85 µM | [5] 14.9 µM | [6] 2.89 µM | [7] 11.8 µM | [8] 17.4 µM | [9] 1.9 µM | [10] 3.56 µM | [11] 4.76 µM | [12] 3.79 µM | [13] 4.39 µM | [14] 4.48 µM | [15] 4.16 µM | [16] 13.2 µM | [17] 5.56 µM | [18] 11.6 µM | [19] 8.3 µM | [20] 5.24 µM | [21] > 100 µM | [22] 3.92 µM | [23] 4.6 µM | [24] 3.66 µM | [25] 3.95 µM | [26] 4.71 µM | [27] 5.65 µM | [28] 7.6 µM | [29] 3.23 µM | [30] 8.93 µM | [31] 3.18 µM | [32] 3.48 µM | [33] 5.82 µM | [34] 3.34 µM | [35] 9.89 µM | [37] 2.87 µM | [38] 2.94 µM | [39] 8.17 µM | [40] 2.67 µM | [42] 3.25 µM | [43] 6.27 µM | [44] 4.79 µM | [45] 3.72 µM | [46] 8.75 µM | [47] 7.59 µM | [48] 4.15 µM | [49] 3.74 µM | [50] 3 µM | [51] 5.38 µM

CO/N=C\c1ccc2c(c1)Sc1ccccc1O2
inactive: [1] 72.3 µM | [2] 48.2 µM | [3] > 100 µM | [4] 51.9 µM | [5] > 100 µM | [6] 69.5 µM | [8] > 100 µM | [9] 36.4 µM | [10] 40.3 µM | [11] > 100 µM | [12] 29.9 µM | [52] 40.7 µM | [13] > 100 µM | [14] 44.8 µM | [16] 90.6 µM | [17] > 100 µM | [18] 31.4 µM | [19] 30.5 µM | [20] > 100 µM | [21] 26.2 µM | [22] > 100 µM | [23] 63 µM | [24] 42.3 µM | [25] > 100 µM | [26] 34.7 µM | [53] 57 µM | [27] > 100 µM | [28] 35.1 µM | [29] 58.3 µM | [30] 47.2 µM | [54] 30.2 µM | [31] 55.7 µM | [32] 73.8 µM | [33] > 100 µM | [34] 33.1 µM | [35] 23.4 µM | [37] 43.9 µM | [55] > 100 µM | [38] 53.5 µM | [39] 62.4 µM | [40] 30.9 µM | [41] 45.7 µM | [43] > 100 µM | [44] 52.5 µM | [45] 54.7 µM | [56] 27.5 µM | [57] 24.5 µM | [46] 71.1 µM | [47] 51.8 µM | [48] 36.3 µM | [58] 40.2 µM | [49] 95.9 µM | [50] 54.5 µM | [51] 66.4 µM
28.5 µM: [36]

CCc1c2c(cc3c1CC1(C3)Cc3cc4c(c(C(=O)OC)c3C1)CCCC4)CCCC2 (stereo unspecified)
> 100 µM: [36]
inactive: [2] > 100 µM | [4] > 100 µM | [5] > 100 µM | [6] 12.1 µM | [7] 51.3 µM | [8] > 100 µM | [9] > 100 µM | [10] 20 µM | [11] > 100 µM | [12] > 100 µM | [52] > 100 µM | [13] > 100 µM | [14] 29.7 µM | [15] > 100 µM | [16] > 100 µM | [18] > 100 µM | [19] > 100 µM | [20] > 100 µM | [21] 80.9 µM | [22] > 100 µM | [23] > 100 µM | [24] > 100 µM | [25] > 100 µM | [26] > 100 µM | [53] > 100 µM | [27] > 100 µM | [28] > 100 µM | [29] > 100 µM | [30] > 100 µM | [54] 28.4 µM | [31] > 100 µM | [34] > 100 µM | [35] 51.8 µM | [37] > 100 µM | [38] > 100 µM | [39] > 100 µM | [40] 19.2 µM | [41] > 100 µM | [42] > 100 µM | [43] > 100 µM | [45] 34.5 µM | [56] 59.4 µM | [57] > 100 µM | [46] 18.5 µM | [47] > 100 µM | [48] > 100 µM | [49] > 100 µM | [50] > 100 µM | [51] > 100 µM
